Measurements taken from publication PMC10048853 (International Journal of Molecular Sciences, 2023).
Read-outs that look alike come from different tables or passages of the source.

Tests used:
Assay type in all cases: binding, Tritirachium album limber
proteinase K (PK) [1] = target: T1, proteinase K (PK) (Parengyodontium album, UniProt P06873); assay: Förster resonance energy transfer (FRET) between PK (donor) and ligand (acceptor); settings: 290 K; PK and ligand 3.46 μM
T1 construct: It is a single-chain protein consisting of 279 amino acid residues and has a molecular weight of 28,930 Da; purchased Jiuding Chemicals (Shanghai, China)
Excerpt: The distance and energy transfer between two chromophores, commonly known as the donor and the acceptor, may be computed by the Förster resonance energy transfer (FRET) theory. […] The energy transfer efficiency and binding distance were estimated according to Equation (6). (6) E=1−F/F0=RC^6/RC^6+r^6 where E is the energy transfer efficiency between the donor and the acceptor, r is the binding distance between the donor and the acceptor, and RC is the critical distance when the energy transfer efficiency is 50%, the value of which can be calculated using Equation (7). (7) RC^6=8.8×10^−25(K^2⋅Φ⋅n^−4⋅J) where K^2 is the spatial orientation factor associated with the geometry of the dipole donor and acceptor and generally takes the value of 2/3. Φ is the fluorescence quantum yield of the donor. The symbol n is the average refractive index of the medium and usually takes the value of 1.336 as the average value of water and organic matter. J is the spectral overlap integral between the fluorescence emission spectrum of the donor and the absorption spectrum of the acceptor, and the value is calculated by Equation (8). (8) J=∑(FD(λ)⋅ε(λ)⋅λ^4⋅Δλ)/∑(FD(λ)⋅Δλ) where FD(λ) is the corrected fluorescence intensity of the donor in the wavelength range, ε(λ) is the molar absorption constant of the acceptor at the wavelength, and ∆λ is the span of the wavelength. Following the FRET theory, the main factors affecting the energy transfer efficiency include the fluorescence production of the donor, the overlap of the fluorescence emission spectrum of the donor with the UV–Vis absorption spectrum of the acceptor, and the binding distance between the donor and the acceptor that must be within a specified range of 1 to 10 nm.
Förster resonance energy transfer (FRET) was tracked by overlapping PK emission spectrum (donor) with MYR or MYT absorption spectrum (acceptor). A concentration of 3.46 μM PK was chosen for the fluorescence emission spectroscopy measurements.

proteinase K (PK) [2] = target: T1, proteinase K (PK); assay: Synchronous fluorescence spectroscopy of PK with ligand; settings: 300 K, ligand increased from 0.0 to 25.0 μM; for maximum emission wavelength of PK, synchronous fluorescence (Figure 6B,D): peak near 274 nm; for maximum emission wavelength of PK, synchronous fluorescence (Figure 6A / 6C): peak near 279 nm
Method: Synchronous fluorescence spectroscopy studies were performed to observe changes in the molecular environment of Tyr residues and Trp residues in the host structure, which are mainly responsible for fluorescence emission. Therefore, we used the characteristic information of Tyr and Trp residues, ∆λ = 15 nm and ∆λ = 60 nm, respectively, to probe the changes in the PK-MYR and PK-MYT complexes.
(§1) A Cary Eclipse fluorescence spectrometer (Varian, Palo Alto, CA, USA) was used to determine specific changes in the fluorescence emission of PK at different temperatures. All measurements were recorded at an excitation wavelength of 278 nm and the emission wavelength of 290–450 nm. The excitation and emission slits were adjusted to 5 nm. In synchronous fluorescence measurements, ∆λ was set to 60 and 15 nm.

proteinase K (PK) [3] = target: T1, proteinase K (PK); assay: Site-tagged competition experiments with ibuprofen and cytisine; settings: for Ksv of free PK: no site marker; for Ksv of PK–cytisine complex as % of that of free PK: site marker cytisine; for Ksv of PK–ibuprofen complex as % of that of free PK: site marker ibuprofen
Excerpt: To determine the binding site of PK, two typical ligands including ibuprofen and cytisine were chosen to perform competitive binding experiments. […] The site-labeling experiments were still performed using Equations (1) and (2) for correction and data analysis, respectively. […] It has been well known that neutral compounds such as ibuprofen and cytisine are likely to bind with proteins through hydrophobic interactions and hydrogen binding. […] This is consistent with the results obtained from the thermodynamic calculations.
For in site labeling competition experiments, an agent such as ibuprofen or cytisine of 3.46 μM was first mixed with PK. […] The excitation wavelengths for PK–ibuprofen and PK–cytisine were 265 and 280 nm, respectively. Fluorescence spectra were analyzed using the Stern–Volmer equation.

proteinase K (PK) [4] = target: T1, proteinase K (PK); assay: Fluorescence quenching of proteinase K by MYR/MYT (Stern–Volmer, double-logarithmic and Van't Hoff analysis); settings: for Stern–Volmer constant Ksv: 3.46 μM PK, pH 8.0; for Kd: double logarithmic equation, read-out: binding constant KA (converted); for fluorescence quenching rate constant Kq: τ0 1 × 10^−8 s; for enthalpy change ∆H: Van't Hoff equation, 290, 300, 310 K; for fluorescence quenching process (mechanism): from Kq versus 2 × 10^10 L·mol^−1·s^−1
Excerpt: Fluorescence spectroscopy is an effective method used to investigate conformational changes of proteins and binding parameters of ligands to fluorophore residues of proteins such as Trp, Tyr or Phe. PK contains two Trp residues (Trp8 and Trp212), which make it possible to emit fluorescence. […] The process by which this phenomenon occurs is called fluorescence quenching, which is the result of the altered microenvironment of PK. To eliminate the interference of fluorescence quenching from the inner filter effect, the experiments were corrected for fluorescence intensity using Equation (1). (1) Fcorr=Fobs×e^(Aex+Aem)/2 where Fcorr and Fobs are the fluorescence emission intensity values of the corrected and pre-corrected systems, respectively. Aex and Aem are the UV–Vis absorption intensities of quencher and PK at excitation and emission wavelengths, respectively.
To investigate the differences in the fluorescence quenching patterns of the PK-MYR and PK-MYT complexes, the Stern–Volmer equation (Equation (2)) was used for analysis.
Fluorescence quenching could be categorized into two processes, namely dynamic quenching and static quenching. Dynamic quenching occurs when the quencher collides with biological macromolecules, while static quenching is caused by the formation of complexes. For the dynamic process, the increase in Ksv along with the increase in temperature is expected, and the opposite is seen for the static quenching process. […] Consequently, we know that the combination of PK and MYR/MYT could form PK-MYR and PK-MYT complexes, leading to the static quenching mechanism.
Normally, the maximum collisional quenching constant Kq is about 2 × 10^10 L·mol^−1·s^−1 for small molecule quenchers and biomolecules.
The binding constants and the number of binding sites can be calculated by using a double logarithmic equation [20, 21] (Equation (3)). (3) log[(F0−F)/F]=logKA+nAlog[Q] where KA represents the binding constant between the biomolecule and the quencher, and nA implies the number of binding sites between the quencher and the fluorophor. […] It could be proposed that the binding constant of PK-MYT is larger than that of PK-MYR at the temperature of 290 K, and these two complexes share a similar binding site number n around one.
(4) lnKA=−ΔH/RΤ+ΔS/R (5) ΔG=−RTInKA=ΔH−TΔS where R is the molar gas constant with a general value of 8.314 J·mol^−1·K^−1. ∆H and ∆S are the enthalpy and entropy changes during the fluorescence quenching, respectively. The ∆G in Equation (5) is the Gibbs free energy change in the reaction. In general, the interaction between quenchers and fluorophors can be explained by four forces, including hydrogen bonding, van der Waals forces, electrostatic forces, and hydrophobic interactions. The sign and magnitude of ∆H and ∆S can be used to distinguish the binding forces and properties of the complexes. When ∆H and ∆S are positive, hydrophobic interactions dominate; when both ∆H and ∆S are negative, they can be explained as hydrogen bonding and van der Waals forces; when ∆H and ∆S are very low negative or positive values, there exist electrostatic interactions.
as §1

[5] = site marker cytisine 3.46 μM, room temperature, 1 h
[6] = site marker ibuprofen 3.46 μM, room temperature, 1 h

T1 sequence (P06873 106-384): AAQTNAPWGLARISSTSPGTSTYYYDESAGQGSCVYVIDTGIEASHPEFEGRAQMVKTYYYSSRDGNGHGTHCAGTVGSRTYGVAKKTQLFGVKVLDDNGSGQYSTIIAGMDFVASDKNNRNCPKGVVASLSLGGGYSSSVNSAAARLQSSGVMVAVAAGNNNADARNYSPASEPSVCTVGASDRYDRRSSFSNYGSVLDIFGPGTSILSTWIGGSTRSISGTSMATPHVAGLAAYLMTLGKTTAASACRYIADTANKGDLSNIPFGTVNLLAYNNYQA

## O=c1c(O)c(-c2cc(O)c(O)c(O)c2)oc2cc(O)cc(O)c12 [MYR, Myricetin]
Proteinase K (PK) [1]
  binding distance r: 5.11 nm
  critical distance RC: 3.61 nm
  energy transfer efficiency E: 0.105
Proteinase K (PK) [2]
  maximum emission wavelength of PK, synchronous fluorescence (Figure 6B,D): no shift
  maximum emission wavelength of PK, synchronous fluorescence (Figure 6A / 6C): 279.0 nm
Proteinase K (PK) [3]
  Ksv of free PK: 24600 L/mol
  Ksv of PK–cytisine complex as % of that of free PK: 70.73%
  Ksv of PK–ibuprofen complex as % of that of free PK: 69.51%
Proteinase K (PK) [3]; [5]
  Stern–Volmer equation quenching constant KSV: 1.74 10^4 L·mol^−1
Proteinase K (PK) [3]; [6]
  Stern–Volmer equation quenching constant KSV: 1.71 10^4 L·mol^−1
Proteinase K (PK) [3]; site marker: blank (free PK)
  Stern–Volmer equation quenching constant KSV: 2.46 10^4 L·mol^−1
Proteinase K (PK) [4]; T 290 K
  Gibbs free energy change ∆G: -6.601 kcal/mol
  number of binding sites nA: 1.0
  Stern–Volmer constant Ksv: 3.57 10^4 L·mol^−1
  Kd: 16.9 µM
  fluorescence quenching rate constant Kq: 3.57 10^12 L·mol^−1·s^−1
Proteinase K (PK) [4]; T 300 K
  Gibbs free energy change ∆G: -6.03 kcal/mol
  number of binding sites nA: 0.9
  Stern–Volmer constant Ksv: 2.46 10^4 L·mol^−1
  Kd: 40.5 µM
  fluorescence quenching rate constant Kq: 2.46 10^12 L·mol^−1·s^−1
Proteinase K (PK) [4]; T 310 K
  Gibbs free energy change ∆G: -5.442 kcal/mol
  number of binding sites nA: 0.9
  Stern–Volmer constant Ksv: 1.90 10^4 L·mol^−1
  Kd: 114 µM
  fluorescence quenching rate constant Kq: 1.90 10^12 L·mol^−1·s^−1
Proteinase K (PK) [4]
  enthalpy change ∆H: -23.42 kcal/mol
  fluorescence quenching process (mechanism): static

## Myricitrin [MYT]
Proteinase K (PK) [1]
  critical distance RC: 3.42 nm
  energy transfer efficiency E: 0.128
Proteinase K (PK) [2]
  maximum emission wavelength of PK, synchronous fluorescence (Figure 6B,D): 274.0 to 276.0 nm
  maximum emission wavelength of PK, synchronous fluorescence (Figure 6A / 6C): 279.0 to 280.0 nm
Proteinase K (PK) [3]
  Ksv of free PK: 20600 L/mol
  Ksv of PK–cytisine complex as % of that of free PK: 38.14%
  Ksv of PK–ibuprofen complex as % of that of free PK: 61.52%
Proteinase K (PK) [3]; [5]
  Stern–Volmer equation quenching constant KSV: 0.78 10^4 L·mol^−1
Proteinase K (PK) [3]; [6]
  Stern–Volmer equation quenching constant KSV: 1.27 10^4 L·mol^−1
Proteinase K (PK) [3]; site marker: blank (free PK)
  Stern–Volmer equation quenching constant KSV: 2.06 10^4 L·mol^−1
Proteinase K (PK) [4]; T 290 K
  Gibbs free energy change ∆G: -6.558 kcal/mol
  number of binding sites nA: 1.1
  Stern–Volmer constant Ksv: 2.20 10^4 L·mol^−1
  fluorescence quenching rate constant Kq: 2.20 10^12 L·mol^−1·s^−1
Proteinase K (PK) [4]; T 300 K
  Gibbs free energy change ∆G: -6.018 kcal/mol
  number of binding sites nA: 1.0
  Stern–Volmer constant Ksv: 2.06 10^4 L·mol^−1
  fluorescence quenching rate constant Kq: 2.06 10^12 L·mol^−1·s^−1
Proteinase K (PK) [4]; T 310 K
  Gibbs free energy change ∆G: -5.28 kcal/mol
  number of binding sites nA: 0.9
  Stern–Volmer constant Ksv: 1.88 10^4 L·mol^−1
  fluorescence quenching rate constant Kq: 1.88 10^12 L·mol^−1·s^−1
Proteinase K (PK) [4]
  enthalpy change ∆H: -25.098 kcal/mol
  fluorescence quenching process (mechanism): static
